This note sets out measurements from patent publication US9249125B2, “Pyrazole derivatives as p38 MAP inhibitors” (RESPIVERT LIMITED, priority 2012, dated 2016).

The target of one data set is Syk (Homo sapiens (Human), UniProt P43405). The experiment in a line: Syk enzyme inhibition (FRET, Z-LYTE). The class given is biochemical. The procedure, abridged: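 Z-LYTE FRET kinase assay: enzyme (3000 or 2000 ng/mL stock, respectively) preincubated 2 h at RT with compound (4–0.004 μg/mL stocks), then FRET peptide plus ATP (800 μM stock for c-Src, 60 μM for Syk) added for 1 h. Protease development 1 h; phosphorylation from coumarin/fluorescein emission ratio.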

The next data set deals with GSK3α (Homo sapiens (Human), UniProt P49840). The data set is described as follows: GSK 3α enzyme inhibition (FRET, Z-LYTE). The class given is biochemical. The procedure, abridged:
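GSK3α (500 ng/mL stock) was preincubated 2 hr at RT with compound (4 to 0.004 μg/mL stocks), then FRET peptide (8 μM stock) and ATP (40 μM stock) added for 1 hr. Protease development for 1 hr cleaved unphosphorylated peptide; coumarin/fluorescein emission ratio reported phosphorylation.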

In the next data set the test system is RSV A2. The data set is described as follows: RSV induced F-protein expression in primary bronchial epithelial cells. The class given is cell-based, respiratory syncytical virus. The conditions noted are these: for RSV induced F-protein in HBECs % Inhibition Observed: screened at concentrations up to 0.04 μg/mL. The method, then:
Normal human bronchial epithelial cells (NHBEC) grown in 96 well plates are infected with RSV A2 (Strain A2, HPA, Salisbury, UK) at an MOI of 0.001 in the LHC8 Media:RPMI-1640 (50:50) containing 15 mM magnesium chloride and incubated for 1 hr at 37° C. for adsorption. The cells are then washed with PBS (3×200 μL), fresh media (200 μL) is added and incubation continued for 4 days. Where appropriate, cells are pre-incubated with the compound or DMSO for 2 hr, and then added again after washout of the virus.
The cells are fixed with 4% formaldehyde in PBS solution (50 μL) for 20 min, washed with WB (3×200 μL), (washing buffer, PBS including 0.5% BSA and 0.05% Tween-20) and incubated with blocking solution (5% condensed milk in PBS) for 1 hr. Cells are then washed with WB (3×200 μL) and incubated for 1 hr at RT with anti-RSV (2F7) F-fusion protein antibody (40 μL) (mouse monoclonal, lot 798760, Cat. No. ab43812, Abcam) in 5% BSA in PBS-tween. After washing, cells are incubated with an HRP-conjugated secondary antibody solution (50 μL) in 5% BSA in PBS-Tween (lot 00053170, Cat. No. P0447, Dako) and then TMB substrate (50 μL) (substrate reagent pack, lot 269472, Cat. No. DY999, R&D Systems, Inc.) was added. This reaction is stopped by the addition of 2N H2SO4 (50 μL) and the resultant signal is determined colorimetrically (OD: 450 nm with a reference wavelength of 655 nm) in a microplate reader (Varioskan® Flash, ThermoFisher Scientific).
Cells are then washed and a 2.5% crystal violet solution (50 μL) (lot 8656, Cat. No. PL7000, Pro-Lab Diagnostics) is applied for 30 min. After washing with WB, 1% SDS in distilled water (100 μL) is added to each well, and plates are shaken lightly on the shaker for 1 hr prior to reading the absorbance at 595 nm. The measured OD450-655 readings are corrected to the cell number by dividing the OD450-655 by the OD595 readings. The percentage inhibition for each well is calculated and the IC50 value is calculated from the concentration-response curve generated from the serial dilutions of compound.

In a further data set the test system is PBMC cells. The experiment in a line: Cell mitosis assay. It counts as cell-based, human. The method, then: Peripheral blood mononucleocytes (PBMCs) from healthy subjects are separated from whole blood (Quintiles, London, UK) using a density gradient (Histopaque-1077, Sigma-Aldrich, Poole, UK). The PBMCs (3 million cells per sample) are subsequently treated with 2% PHA (Sigma-Aldrich, Poole, UK) for 48 hr, followed by a 20 hr exposure to varying concentrations of test compounds. At 2 hr before collection, PBMCs are treated with demecolcine (0.1 μg/mL) (Invitrogen, Paisley, UK,) to arrest cells in metaphase. To observe mitotic cells, PBMCs are permeabilised and fixed by adding Intraprep (50 μL) (Beckman Coulter, France), and stained with anti-phospho-histone 3 (0.26 ng/L) (#9701; Cell Signalling, Danvers, Mass.) and propidium iodide (1 mg/mL) (Sigma-Aldrich, Poole, UK,) as previously described (Muehlbauer P. A. and Schuler M. J., Mutation Research, 2003, 537:117-130). Fluorescence is observed using an ATTUNE flow cytometer (Invitrogen, Paisley, UK), gating for lymphocytes.

Data set [1] deals with LPS-induced airways neutrophilia in mice. The experiment in a line: LPS-induced neutrophil accumulation in mice. The class given is in vivo. The conditions noted are these: Test Substance at 0.2 mg/mL, intra tracheal, dosed 8 hr pre-LPS challenge. The method, then:
Non-fasted Balb/c mice are dosed by the intra tracheal route with either vehicle, or the test substance at the indicated times (within the range 2-8 hr) before stimulation of the inflammatory response by application of an LPS challenge. At T=0, mice are placed into an exposure chamber and exposed to LPS (7.0 mL, 0.5 mg/mL solution in PBS) for 30 min). After a further 8 hr the animals are anesthetized, their tracheas cannulated and BALF extracted by infusing and then withdrawing from their lungs 1.0 mL of PBS via the tracheal catheter. Total and differential white cell counts in the BALF samples are measured using a Neubaur haemocytometer. Cytospin smears of the BALF samples are prepared by centrifugation at 200 rpm for 5 min at RT and stained using a DiffQuik stain system (Dade Behring). Cells are counted using oil immersion microscopy. Data for neutrophil numbers in BAL are shown as mean±S.E.M. (standard error of the mean). The percentage inhibition of neutrophil accumulation is calculated for each treatment relative to vehicle treatment.

Chain of GSK3α (P49840 whole entry): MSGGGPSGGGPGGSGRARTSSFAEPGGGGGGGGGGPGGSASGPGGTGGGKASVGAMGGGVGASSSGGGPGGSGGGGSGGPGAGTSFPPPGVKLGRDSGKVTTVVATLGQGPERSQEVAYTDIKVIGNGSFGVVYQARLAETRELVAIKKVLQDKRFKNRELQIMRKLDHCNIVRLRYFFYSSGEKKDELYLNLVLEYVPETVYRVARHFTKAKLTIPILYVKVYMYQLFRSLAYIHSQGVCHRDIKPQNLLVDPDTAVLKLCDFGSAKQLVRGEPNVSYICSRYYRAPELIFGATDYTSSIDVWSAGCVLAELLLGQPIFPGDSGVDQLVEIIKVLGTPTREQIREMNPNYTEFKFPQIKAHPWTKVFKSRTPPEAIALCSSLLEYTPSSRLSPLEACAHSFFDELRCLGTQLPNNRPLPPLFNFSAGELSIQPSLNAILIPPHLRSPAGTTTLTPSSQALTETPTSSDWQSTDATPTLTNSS

Consider `Cc1ccc(-n2nc(C(C)(C)C)cc2NC(=O)Nc2ccc(Oc3ccnc(Nc4cccc5cc[nH]c45)n3)c3ccccc23)cc1` [Example 17], for which the results for the 50% inhibitory concentration (IC50) at Syk and at GSK3α were 280 nM and > 16100 nM, respectively. For the same compound, the “RSV induced F-protein in HBECs % Inhibition Observed” value in the data set on RSV A2 is recorded as 65%.

`COc1ccc(-n2nc(C(C)(C)C)cc2NC(=O)Nc2ccc(Oc3ccnc(Nc4ccc5[nH]ncc5c4)n3)c3ccccc23)cc1` [Example 40, 1-(4-((2-((1H-indazol-5-yl)amino)pyrimidin-4-yl)oxy)naphthalen-1-yl)-3-(3-(tert-butyl)-1-(4-methoxyphenyl)-1H-pyrazol-5-yl)urea]: the IC50 at Syk was 24 nM; against GSK3α, > 15600 nM; with RSV A2 (human respiratory syncytial virus, Primary bronchial epithelial cell, read-out: RSV induced F-protein in HBECs IC50) it was 4.8 nM. The “Mitosis Assay % inhibition in PBMC cells at 5 μg/mL” value (from here on “Mitosis Assay % inhibition”) in the data set with PBMC cells worked out at 30.5%.

In the case of `Cc1ccc(-n2nc(C(C)(C)C)cc2NC(=O)Nc2ccc(Oc3ccnc(Nc4ccc5c(c4)ncn5C)n3)c3ccccc23)cc1` [Example 4, 1-(3-(tert-Butyl)-1-(p-tolyl)-1H-pyrazol-5-yl)-3-(4-((2-((1-methyl-1H-benzo[d]imidazol-5-yl)amino)pyrimidin-4-yl)oxy)naphthalen-1-yl)urea], the figures for the IC50 against Syk and against GSK3α were 14 nM and 1370 nM, respectively. In addition, the “RSV induced F-protein in HBECs % Inhibition Observed” value in the data set with RSV A2 worked out at 96%.

`Cc1cc(Nc2nccc(Oc3ccc(NC(=O)Nc4cc(C(C)(C)C)nn4-c4cccc(OCCN5CCOCC5)c4)c4ccccc34)n2)cc2cn[nH]c12` [Example 56, 1-(3-(tert-butyl)-1-(3-(2-morpholinoethoxy)phenyl)-1H-pyrazol-5-yl)-3-(4-((2-((7-methyl-1H-indazol-5-yl)amino)pyrimidin-4-yl)oxy)naphthalen-1-yl)urea]: the half-inhibitory concentration (IC50) against Syk was 3 nM; against GSK3α it was > 13300 nM. Also, the “% Inhibition of neutrophil accumulation in BAL” value in data set [1] is recorded as 38%. Moreover, the “Neutrophil numbers in BAL (+/−SEM)” value in data set [1] is 10.2 ± 1.9 ×10^5/mL.

Turning to `CC(C)(C)c1cc(NC(=O)Nc2ccc(Oc3ccnc(Nc4ccc5[nH]ncc5c4)n3)c3ccccc23)n(-c2ccc(OCCN3CCOCC3)cc2)n1` [Example 12, 1-(4-((2-((1H-Indazol-5-yl)amino)pyrimidin-4-yl)oxy)naphthalen-1-yl)-3-(3-(tert-butyl)-1-(4-(2-morpholinoethoxy)phenyl)-1H-pyrazol-5-yl)urea], the IC50 against Syk was found to be 22 nM. Also, half-maximal inhibition on GSK3α (IC50) was put at 3890 nM. Further, the “Mitosis Assay % inhibition” value in the data set on PBMC cells is 58.6%. Also, in data set [1], the “% Inhibition of neutrophil accumulation in BAL” value came out at 46% and the “Neutrophil numbers in BAL (+/−SEM)” value is reported as 7.6 ± 1.5 ×10^5/mL.

Turning to `Cc1ccc(-n2nc(C(C)(C)C)cc2NC(=O)Nc2ccc(Oc3ccnc(Nc4ccc5c(ccn5C)c4)n3)c3ccccc23)cc1` [Example 18, 1-(3-(tert-butyl)-1-(p-tolyl)-1H-pyrazol-5-yl)-3-(4-((2-((1-methyl-1H-indol-5-yl)amino)pyrimidin-4-yl)oxy)naphthalen-1-yl)urea], the 50% inhibitory concentration (IC50) at Syk came out at 92 nM; against GSK3α, 7080 nM. Further, in the data set with RSV A2, the “RSV induced F-protein in HBECs % Inhibition Observed” value was 56%.

For `Cc1ccc(-n2nc(C(C)(C)C)cc2NC(=O)Nc2ccc(Oc3ccnc(Nc4ccc5[nH]cnc5c4)n3)c3ccccc23)cc1` [Example 30, 1-(4-((2-((1H-benzo[d]imidazol-5-yl)amino)pyrimidin-4-yl)oxy)naphthalen-1-yl)-3-(3-(tert-butyl)-1-(p-tolyl)-1H-pyrazol-5-yl)urea], the IC50 was > 1600 nM at Syk and 301 nM on GSK3α. Moreover, the “RSV induced F-protein in HBECs % Inhibition Observed” value in the data set with RSV A2 is recorded as 57%.

For `Cc1ccc(-n2nc(C(C)(C)C)cc2NC(=O)Nc2ccc(Oc3ccnc(Nc4ccc5cn[nH]c5c4)n3)c3ccccc23)cc1` [Example 24, 1-(4-((2-((1H-indazol-6-yl)amino)pyrimidin-4-yl)oxy)naphthalen-1-yl)-3-(3-(tert-butyl)-1-(p-tolyl)-1H-pyrazol-5-yl)urea], the IC50 against Syk came to 1090 nM; at GSK3α, 2180 nM. Also, the “RSV induced F-protein in HBECs % Inhibition Observed” value with RSV A2 was 45%.

Take `Cc1ccc(-n2nc(C(C)(C)C)cc2NC(=O)Nc2ccc(Oc3ccnc(Nc4ccc5ncsc5c4)n3)c3ccccc23)cc1` [Example 35, 1-(4-((2-(benzo[d]thiazol-6-ylamino)pyrimidin-4-yl)oxy)naphthalen-1-yl)-3-(3-(tert-butyl)-1-(p-tolyl)-1H-pyrazol-5-yl)urea]: the half-inhibitory concentration (IC50) against Syk is > 1560 nM; on GSK3α it was > 15600 nM. The “RSV induced F-protein in HBECs % Inhibition Observed” value with RSV A2 came out at 71%.

For the compound `Cc1ccc(-n2nc(C(C)(C)C)cc2NC(=O)Nc2ccc(Oc3cc(Nc4ccc5[nH]ncc5c4)ncn3)c3ccccc23)cc1` [Example 23, 1-(4-((6-((1H-indazol-5-yl)amino)pyrimidin-4-yl)oxy)naphthalen-1-yl)-3-(3-(tert-butyl)-1-(p-tolyl)-1H-pyrazol-5-yl)urea], the IC50 on Syk was found to be 57 nM; at GSK3α it was 12500 nM. For the same compound, the “Mitosis Assay % inhibition” value in the data set on PBMC cells came to 70.7%.

With `Cc1cc(Nc2nccc(Oc3ccc(NC(=O)Nc4cc(C(C)(C)C)nn4-c4ccc(=O)n(CCN5CCOCC5)c4)c4ccccc34)n2)cc2cn[nH]c12` [Example 89, 1-(3-(tert-butyl)-1-(1-(2-morpholinoethyl)-6-oxo-1,6-dihydropyridin-3-yl)-1H-pyrazol-5-yl)-3-(4-((2-((7-methyl-1H-indazol-5-yl)amino)pyrimidin-4-yl)oxy)naphthalen-1-yl)urea], the half-inhibitory concentration (IC50) on Syk stood at 3 nM; on GSK3α, 2780 nM. The “Mitosis Assay % inhibition” value in the data set on PBMC cells is 26.7%.

Regarding `Cc1ccc(-n2nc(C(C)(C)C)cc2NC(=O)Nc2ccc(Oc3ccnc(Nc4ccc5scnc5c4)n3)c3ccccc23)cc1` [Example 34, 1-(4-((2-(benzo[d]thiazol-5-ylamino)pyrimidin-4-yl)oxy)naphthalen-1-yl)-3-(3-(tert-butyl)-1-(p-tolyl)-1H-pyrazol-5-yl)urea], the values for the IC50 on Syk and on GSK3α were > 1560 nM and 1620 nM, respectively. The “RSV induced F-protein in HBECs % Inhibition Observed” value with RSV A2 was found to be 74%.

Regarding `Cc1ccc(-n2nc(C(C)(C)C)cc2NC(=O)Nc2ccc(Oc3ccnc(Nc4ccc5ncn(C)c5c4)n3)c3ccccc23)cc1` [Example 31, 1-(3-(tert-butyl)-1-(p-tolyl)-1H-pyrazol-5-yl)-3-(4-((2-((1-methyl-1H-benzo[d]imidazol-6-yl)amino)pyrimidin-4-yl)oxy)naphthalen-1-yl)urea], the IC50 on Syk turned out to be 199 nM; against GSK3α, 1610 nM. For the same compound, the “RSV induced F-protein in HBECs % Inhibition Observed” value in the data set on RSV A2 was found to be 73%.

Usually IC50 stands for the concentration at which inhibition is half-maximal.
